For data set [1] the following is noted: at normal temperatures; cited from earlier work.
Data set [2] is described as follows: Test of velocity of dissolution. The class given is physicochemical. Particulars: 1.2 mmol added to 10 mL of water with stirring at room temperature. As for the experimental part: Test of Velocity of Dissolution
Each of the following was added to separate containers containing 10 mL of water with stirring at room temperature: (a) a mixture (0.53 g) of 1.2 mmol of inosine and 1.2 mmol of L-arginine, (b) 1.2 mmol (0.53 g) of the inosine. L-arginine salt obtained in Example 1, and (3) 1.2 mmol (0.32 g) of inosine. The time period for complete dissolution was measured for each. The equimolar mixture of inosine and L-arginine required 50 seconds for complete dissolution. On the other hand, inosine. […] L-arginine salt were confirmed.

Data set [3] deals with Lawn seedlings (Western lawn: bent grass). Description: Plant growth promoting effect, hydroponic culture of lawn seedlings. The class given is in vivo. The following applies: hydroponics in HYPONEX diluted 2,000-fold, inosine concentration 20 ppm, after a month of culturing. As for the experimental part:
Plant Growth Promoting Effect
Lawn seedlings (Western lawn: bent grass) were raised and divided into two groups each containing 30 plants. Hydroponics were performed as follows. Both the control group and the inosine. L-arginine salt group were cultured using HYPONEX, diluted by a facter of 2,000. The HYPONEX diluted by a facter of 2000 alone was used as culture fluid for the control group. Inosine- L-arginine salt was added to the culture fluid to an inosine concentration of 20 ppm.
After a month of culturing, the average plant length, the average root length, the number of leaves for 30 plants, the number of branching of a stem for 30 plants, the weight for 30 plants, and the dried weight for 30 plants were measured for each group. From the Table, the effectiveness of inosine. L-arginine salt was confirmed.

SMILES strings stand for the structures.

For the compound `OC[C@H]1O[C@@H](n2cnc3c(O)ncnc32)[C@H](O)[C@@H]1O` [inosine], in data set [1], the solubility in water result is recorded as “about 1.6%”. In addition, the “time period for complete dissolution” value in data set [2] was “did not completely dissolve”.

With `N=C(N)NCCC[C@H](N)C(=O)O.OC[C@H]1O[C@@H](n2cnc3c(O)ncnc32)[C@H](O)[C@@H]1O` [inosine · L-arginine salt, inosine. L-arginine salt], in data set [3], the “Dried weight per 30 plants” value is 0.0434 g, the “Number of branching per 30 plants” value is listed as 37, the “Number of leaves per 30 plants” value came to 102 and the “Weight per 30 plants” value was determined as 0.13 g. In data set [3] (30 plants), the Average plant length was determined as 6.0 cm and the Average root length is listed as 5.0 cm. Also, in data set [2], the “time period for complete dissolution” value is “dissolved immediately”.
